Source: paper PMC10576769 (Nature Communications, 2023)

Assays:
LmPC-PLC [1] = target: T1, LmPC-PLC (Listeria monocytogenes serovar 1/2a, UniProt P33378); assay: biochemical; assay type: biochemical; settings: for Activity of LmPC-PLC towards 4-NPPC (slope): 50 μM ZnSO4; for relative activity of LmPC-PLC WT on 4-NPPC (compared to uninhibited activity): Fig. 4g
[2] = target: broad-range phospholipase C from Listeria monocytogenes (LmPC-PLC), wild type, mature form (Listeria monocytogenes) (UniProt P33378)
LmPC-PLC [3] = target: T1, LmPC-PLC; assay type: biochemical; settings: 100% POPC MLVs […], 20 mM MES pH 6.5, 150 mM NaCl, 50 μM ZnSO4, 37 °C, replicate 1

T1 sequence (P33378 52-289 limits assumed): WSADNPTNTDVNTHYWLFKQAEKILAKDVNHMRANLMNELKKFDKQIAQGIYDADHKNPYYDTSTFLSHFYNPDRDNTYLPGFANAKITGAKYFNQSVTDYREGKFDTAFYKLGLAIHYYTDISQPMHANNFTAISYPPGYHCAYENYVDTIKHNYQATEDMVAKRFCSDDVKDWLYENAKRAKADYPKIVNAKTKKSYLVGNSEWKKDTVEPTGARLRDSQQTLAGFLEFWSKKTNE
Chain of broad-range phospholipase C from Listeria monocytogenes (LmPC-PLC), wild type, mature form (P33378 52-289): as the sequence (P33378 52-289 limits assumed) above

Compound: c1ccc(CN(CCN(Cc2ccccn2)Cc2ccccn2)Cc2ccccn2)nc1 [TPEN, N,N,N′,N′-tetrakis(2-pyridinylmethyl)−1,2-ethanediamine]
- inhibition of LmPC-PLC compared with O-phe (LmPC-PLC [1]; LmPC-PLC 500 nM, 4-NPPC 1 mM, pH 6.5, 50 μM ZnSO4, Supplementary Fig. 10): even stronger inhibition
- Activity of LmPC-PLC towards 4-NPPC (slope) (LmPC-PLC [1]; inhibitor 2 uM, LmPC-PLC 500 nM, 4-NPPC 1 mM, 20 mM MES pH 6.5, 150 mM NaCl, replicate 1 of N=3): 0.0004788 abs/min
- Activity of LmPC-PLC towards 4-NPPC (slope) (LmPC-PLC [1]; inhibitor 2 uM, LmPC-PLC 500 nM, 4-NPPC 1 mM, 20 mM MES pH 6.5, 150 mM NaCl, replicate 2 of N=3): 0.0004923 abs/min
- Activity of LmPC-PLC towards 4-NPPC (slope) (LmPC-PLC [1]; inhibitor 2 uM, LmPC-PLC 500 nM, 4-NPPC 1 mM, 20 mM MES pH 6.5, 150 mM NaCl, replicate 3 of N=3): 0.0004163 abs/min
- Activity of LmPC-PLC towards 4-NPPC (slope) (LmPC-PLC [1]; inhibitor 4 uM, LmPC-PLC 500 nM, 4-NPPC 1 mM, 20 mM MES pH 6.5, 150 mM NaCl, replicate 1 of N=3): 0.0004484 abs/min
- Activity of LmPC-PLC towards 4-NPPC (slope) (LmPC-PLC [1]; inhibitor 4 uM, LmPC-PLC 500 nM, 4-NPPC 1 mM, 20 mM MES pH 6.5, 150 mM NaCl, replicate 2 of N=3): 0.0005039 abs/min
- Activity of LmPC-PLC towards 4-NPPC (slope) (LmPC-PLC [1]; inhibitor 4 uM, LmPC-PLC 500 nM, 4-NPPC 1 mM, 20 mM MES pH 6.5, 150 mM NaCl, replicate 3 of N=3): 0.0004264 abs/min
- Activity of LmPC-PLC towards 4-NPPC (slope) (LmPC-PLC [1]; inhibitor 8 uM, LmPC-PLC 500 nM, 4-NPPC 1 mM, 20 mM MES pH 6.5, 150 mM NaCl, replicate 1 of N=3): 0.0004334 abs/min
- Activity of LmPC-PLC towards 4-NPPC (slope) (LmPC-PLC [1]; inhibitor 8 uM, LmPC-PLC 500 nM, 4-NPPC 1 mM, 20 mM MES pH 6.5, 150 mM NaCl, replicate 2 of N=3): 0.0004696 abs/min
- Activity of LmPC-PLC towards 4-NPPC (slope) (LmPC-PLC [1]; inhibitor 8 uM, LmPC-PLC 500 nM, 4-NPPC 1 mM, 20 mM MES pH 6.5, 150 mM NaCl, replicate 3 of N=3): 0.0004182 abs/min
- Activity of LmPC-PLC towards 4-NPPC (slope) (LmPC-PLC [1]; inhibitor 16 uM, LmPC-PLC 500 nM, 4-NPPC 1 mM, 20 mM MES pH 6.5, 150 mM NaCl, replicate 1 of N=3): 0.0003725 abs/min
- Activity of LmPC-PLC towards 4-NPPC (slope) (LmPC-PLC [1]; inhibitor 16 uM, LmPC-PLC 500 nM, 4-NPPC 1 mM, 20 mM MES pH 6.5, 150 mM NaCl, replicate 2 of N=3): 0.0004155 abs/min
- Activity of LmPC-PLC towards 4-NPPC (slope) (LmPC-PLC [1]; inhibitor 16 uM, LmPC-PLC 500 nM, 4-NPPC 1 mM, 20 mM MES pH 6.5, 150 mM NaCl, replicate 3 of N=3): 0.0003534 abs/min
- Activity of LmPC-PLC towards 4-NPPC (slope) (LmPC-PLC [1]; inhibitor 31 uM, LmPC-PLC 500 nM, 4-NPPC 1 mM, 20 mM MES pH 6.5, 150 mM NaCl, replicate 1 of N=3): 0.0002559 abs/min
- Activity of LmPC-PLC towards 4-NPPC (slope) (LmPC-PLC [1]; inhibitor 31 uM, LmPC-PLC 500 nM, 4-NPPC 1 mM, 20 mM MES pH 6.5, 150 mM NaCl, replicate 2 of N=3): 0.0003429 abs/min
- Activity of LmPC-PLC towards 4-NPPC (slope) (LmPC-PLC [1]; inhibitor 31 uM, LmPC-PLC 500 nM, 4-NPPC 1 mM, 20 mM MES pH 6.5, 150 mM NaCl, replicate 3 of N=3): 0.0003443 abs/min

Compound: broad-range phospholipase C from Listeria monocytogenes (LmPC-PLC), wild type, mature form (from UniProt P33378 52-289) (enzyme)
- stoichiometry N [2]: 2

Compound: CC[C@H](C)[C@H](NC(=O)[C@H](CC(=O)O)NC(=O)[C@H](Cc1c[nH]cn1)NC(=O)[C@@H]1CCCN1C(=O)[C@H](C)NC(=O)[C@H](C)NC(=O)[C@@H]1CCCN1C(=O)[C@@H](NC(=O)[C@H](CCC(N)=O)NC(=O)[C@H](CC(C)C)NC(=O)[C@H](Cc1ccc(O)cc1)NC(=O)[C@H](CCC(=O)O)NC(=O)[C@H](CC(=O)O)NC(=O)[C@H](CS)NC(=O)[C@H](CS)NC(=O)[C@H](C)NC(=O)[C@@H](N)CC(N)=O)[C@@H](C)O)C(=O)N[C@@H](CC(=O)O)C(=O)N[C@@H](CO)C(=O)N[C@@H](CCCCN)C(=O)N[C@@H](CC(C)C)C(=O)N1CCC[C@H]1C(=O)N[C@@H](Cc1c[nH]cn1)C(=O)N[C@@H](CCCCN)C(=O)N[C@@H](CC(C)C)C(=O)N[C@@H](CO)C(=O)O [NS-26]
- relative activity on 4-NPPC (compared to uninhibited activity), Lm (LmPC-PLC [1]; Fig. 4e, peptide 100uM, PC-PLC 500 nM, 4-NPPC 1 mM, 20 mM MES pH 6.5, 150 mM NaCl, 500 μM ZnSO4, 37 °C, replicate 1): 0.3179
- relative activity of LmPC-PLC WT on 4-NPPC (compared to uninhibited activity) (LmPC-PLC [1]; as E100, replicate 2): 0.2706
- relative activity of LmPC-PLC WT on 4-NPPC (compared to uninhibited activity) (LmPC-PLC [1]; as E100, replicate 3): 0.2574
- relative activity of LmPC-PLC WT on 4-NPPC (compared to uninhibited activity) (LmPC-PLC [1]; peptide 100 uM, enzyme 500 nM, 4-NPPC 1 mM, 20 mM MES pH 6.5, 150 mM NaCl, 500 μM ZnSO4, 37 °C, replicate 1): 0.2356
- IC50 (LmPC-PLC [1]; IC50, 95% CI, as IC50, 95% CI from the fit): 4.9 to 33.9 µM
- IC50 (LmPC-PLC [1]; IC50, LmPC-PLC 500 nM, 4-NPPC 1 mM, 20 mM MES pH 6.5, 150 mM NaCl, 500 μM ZnSO4, 37 °C, four-parameter logistic fit, n = 3): 9.4 µM
- relative activity on POPC (compared to uninhibited activity), Lm (LmPC-PLC [3]; Fig. 4f, peptide 10 uM, PC-PLC 50 nM): 0.3051
- relative activity of LmPC-PLC WT on POPC (compared to uninhibited activity) (LmPC-PLC [3]; Fig. 4h, peptide 100 uM as printed in the head (legend and method: 10 μM), enzyme 50 nM): 0.2837

Compound: [Zn] [Zn]
- Activity of LmPC-PLC, 4-NPPC as substrate (slope) (LmPC-PLC [1]; Zn 500 uM, 0 mM TCEP, LmPC-PLC 500 nM, 4-NPPC 1 mM, replicate 1): 0.0003721
- Activity of LmPC-PLC, 4-NPPC as substrate (slope) (LmPC-PLC [1]; Zn 500 uM, 0 mM TCEP, LmPC-PLC 500 nM, 4-NPPC 1 mM, replicate 2): 0.0004616
- Activity of LmPC-PLC, 4-NPPC as substrate (slope) (LmPC-PLC [1]; Zn 500 uM, 0 mM TCEP, LmPC-PLC 500 nM, 4-NPPC 1 mM, replicate 3): 0.0006377
- Activity of LmPC-PLC, 4-NPPC as substrate (slope) (LmPC-PLC [1]; Zn 5000 uM, 0 mM TCEP, LmPC-PLC 500 nM, 4-NPPC 1 mM, replicate 1): 0.0007074
- Activity of LmPC-PLC, 4-NPPC as substrate (slope) (LmPC-PLC [1]; Zn 5000 uM, 0 mM TCEP, LmPC-PLC 500 nM, 4-NPPC 1 mM, replicate 2): 0.000691
- Activity of LmPC-PLC, 4-NPPC as substrate (slope) (LmPC-PLC [1]; Zn 5000 uM, 0 mM TCEP, LmPC-PLC 500 nM, 4-NPPC 1 mM, replicate 3): 0.0004664

Compound: O=C(O)CCP(CCC(=O)O)CCC(=O)O [TCEP]
- Activity of LmPC-PLC, 4-NPPC as substrate (slope) (LmPC-PLC [1]; 1 mM TCEP, Zn 500 uM, LmPC-PLC 500 nM, 4-NPPC 1 mM, replicate 1): 6.624e-5
- Activity of LmPC-PLC, 4-NPPC as substrate (slope) (LmPC-PLC [1]; 1 mM TCEP, Zn 500 uM, LmPC-PLC 500 nM, 4-NPPC 1 mM, replicate 2): 6.51e-5
- Activity of LmPC-PLC, 4-NPPC as substrate (slope) (LmPC-PLC [1]; 1 mM TCEP, Zn 500 uM, LmPC-PLC 500 nM, 4-NPPC 1 mM, replicate 3): 6.545e-5
- Activity of LmPC-PLC, 4-NPPC as substrate (slope) (LmPC-PLC [1]; 1 mM TCEP, Zn 5000 uM, LmPC-PLC 500 nM, 4-NPPC 1 mM, replicate 1): 0.0001618
- Activity of LmPC-PLC, 4-NPPC as substrate (slope) (LmPC-PLC [1]; 1 mM TCEP, Zn 5000 uM, LmPC-PLC 500 nM, 4-NPPC 1 mM, replicate 2): 0.0001898
- Activity of LmPC-PLC, 4-NPPC as substrate (slope) (LmPC-PLC [1]; 1 mM TCEP, Zn 5000 uM, LmPC-PLC 500 nM, 4-NPPC 1 mM, replicate 3): 0.0002041
- Activity of LmPC-PLC, 4-NPPC as substrate (slope) (LmPC-PLC [1]; 5 mM TCEP, Zn 500 uM, LmPC-PLC 500 nM, 4-NPPC 1 mM, replicate 1, value 0 = no slope could be determined): 0.00000
- Activity of LmPC-PLC, 4-NPPC as substrate (slope) (LmPC-PLC [1]; 5 mM TCEP, Zn 500 uM, LmPC-PLC 500 nM, 4-NPPC 1 mM, replicate 2, value 0 = no slope could be determined): 0.00000
- Activity of LmPC-PLC, 4-NPPC as substrate (slope) (LmPC-PLC [1]; 5 mM TCEP, Zn 500 uM, LmPC-PLC 500 nM, 4-NPPC 1 mM, replicate 3, value 0 = no slope could be determined): 0.00000
- Activity of LmPC-PLC, 4-NPPC as substrate (slope) (LmPC-PLC [1]; 5 mM TCEP, Zn 5000 uM, LmPC-PLC 500 nM, 4-NPPC 1 mM, replicate 1, value 0 = no slope could be determined): 0.00000
- Activity of LmPC-PLC, 4-NPPC as substrate (slope) (LmPC-PLC [1]; 5 mM TCEP, Zn 5000 uM, LmPC-PLC 500 nM, 4-NPPC 1 mM, replicate 2, value 0 = no slope could be determined): 0.00000
- Activity of LmPC-PLC, 4-NPPC as substrate (slope) (LmPC-PLC [1]; 5 mM TCEP, Zn 5000 uM, LmPC-PLC 500 nM, 4-NPPC 1 mM, replicate 3, value 0 = no slope could be determined): 0.00000
- Activity of LmPC-PLC, 4-NPPC as substrate (slope) (LmPC-PLC [1]; 20 mM TCEP, Zn 500 uM, LmPC-PLC 500 nM, 4-NPPC 1 mM, replicate 1, value 0 = no slope could be determined): 0.00000
- Activity of LmPC-PLC, 4-NPPC as substrate (slope) (LmPC-PLC [1]; 20 mM TCEP, Zn 500 uM, LmPC-PLC 500 nM, 4-NPPC 1 mM, replicate 2, value 0 = no slope could be determined): 0.00000
- Activity of LmPC-PLC, 4-NPPC as substrate (slope) (LmPC-PLC [1]; 20 mM TCEP, Zn 500 uM, LmPC-PLC 500 nM, 4-NPPC 1 mM, replicate 3, value 0 = no slope could be determined): 0.00000
- Activity of LmPC-PLC, 4-NPPC as substrate (slope) (LmPC-PLC [1]; 20 mM TCEP, Zn 5000 uM, LmPC-PLC 500 nM, 4-NPPC 1 mM, replicate 1, value 0 = no slope could be determined): 0.00000
- Activity of LmPC-PLC, 4-NPPC as substrate (slope) (LmPC-PLC [1]; 20 mM TCEP, Zn 5000 uM, LmPC-PLC 500 nM, 4-NPPC 1 mM, replicate 2, value 0 = no slope could be determined): 0.00000
- Activity of LmPC-PLC, 4-NPPC as substrate (slope) (LmPC-PLC [1]; 20 mM TCEP, Zn 5000 uM, LmPC-PLC 500 nM, 4-NPPC 1 mM, replicate 3, value 0 = no slope could be determined): 0.00000
